Assay results from patent US20250099455A1, “TREATMENT FOR CONGESTIVE HEART FAILURE” (FibroGen, Inc., priority 2022, published 2025).

Tested on: myocardial ischemia-induced heart failure (HFrEF)
Experiment: Rat model of ischemic HFrEF, Formula I and empagliflozin alone and in combination
Format: in vivo
Description: • Male Sprague Dawley rats • Ligation of left coronary artery for 30 minutes followed by reperfusion • Post-ligation recovery for 28 days • Cardiac function 28 days after ischemia-reperfusion using a Millar pressure-volume catheter inserted in the left ventricle via the carotid artery • Record pressure-volume loops over several cardiac cycles and derived cardiac function parameters A) Rat Model of Ischemic Heart Failure with Reduced Ejection Fraction (HFrEF)

In the case of OC[C@H]1O[C@@H](c2ccc(Cl)c(Cc3ccc(O[C@H]4CCOC4)cc3)c2)[C@H](O)[C@@H](O)[C@@H]1O [empagliflozin, reference compound], the “improvement in ejection fraction” value is reported as about 30% and the “improvement in end systolic volume” value is reported as about 30%.
